From the NIST ThermoML archive (doi:10.1016/j.fluid.2011.06.001) come the findings set out here.

Numbers after ± are expanded uncertainties.

Data set [1] in a line: excess molar enthalpy (molar enthalpy of mixing); xn = mol fraction of the nth substance listed. To be noted: 298.15 K, 101 kPa, Liquid, Flow calorimetry.
For data set [2] the following is noted: Liquid, Closed cell (Static) method.

On to `CCCCCl` [1-chlorobutane] + CC(C)OC(C)C, for which the excess molar enthalpy in data set [1] (x1 = 0.0908) was -0.0286 ± 0.0011 kJ/mol; in data set [1] (x1 = 0.1817), -0.0547 ± 0.0016 kJ/mol; in data set [1] (x1 = 0.2726), -0.0732 ± 0.0019 kJ/mol; in data set [1] (x1 = 0.3636), -0.0873 ± 0.0022 kJ/mol; in data set [1] (x1 = 0.4545), -0.0954 ± 0.0024 kJ/mol; in data set [1] (x1 = 0.5453), -0.0954 ± 0.0024 kJ/mol. The excess molar enthalpy in data set [1] (x1 = 0.6363) was -0.0903 ± 0.0023 kJ/mol; in data set [1] (x1 = 0.7273) it was -0.0785 ± 0.002 kJ/mol; in data set [1] (x1 = 0.818), -0.0587 ± 0.0016 kJ/mol; in data set [1] (x1 = 0.909) it was -0.0324 ± 0.0011 kJ/mol.
For `CC(C)CCl` [1-chloro-2-methylpropane] + CC(C)OC(C)C, the excess molar enthalpy was -0.0302 ± 0.0011 kJ/mol in data set [1] (x1 = 0.0907); -0.0541 ± 0.0015 kJ/mol in data set [1] (x1 = 0.1815); -0.0732 ± 0.0019 kJ/mol in data set [1] (x1 = 0.2726); -0.0863 ± 0.0022 kJ/mol in data set [1] (x1 = 0.3634); -0.0948 ± 0.0023 kJ/mol in data set [1] (x1 = 0.4544); -0.0957 ± 0.0024 kJ/mol in data set [1] (x1 = 0.5453). Besides, the excess molar enthalpy in data set [1] (x1 = 0.6361) is -0.0915 ± 0.0023 kJ/mol; in data set [1] (x1 = 0.727) it was -0.0791 ± 0.002 kJ/mol; in data set [1] (x1 = 0.8179), -0.0615 ± 0.0017 kJ/mol; in data set [1] (x1 = 0.909), -0.0344 ± 0.0012 kJ/mol.
The term vapor or sublimation pressure denotes the equilibrium pressure above the liquid or solid. Take `CC(C)CCl` [1-chloro-2-methylpropane]: the “vapor or sublimation pressure” value is 13 ± 0.034 kPa in data set [2] (288.15 K), 20.35 ± 0.048 kPa in data set [2] (298.15 K) and 30.45 ± 0.066 kPa in data set [2] (308.15 K).
`CCC(C)Cl` (stereo not drawn) [2-chlorobutane] + CC(C)OC(C)C: the excess molar enthalpy is -0.0154 ± 0.0009 kJ/mol in data set [1] (x1 = 0.0909); -0.03 ± 0.0011 kJ/mol in data set [1] (x1 = 0.1819); -0.0434 ± 0.0013 kJ/mol in data set [1] (x1 = 0.2726); -0.0523 ± 0.0015 kJ/mol in data set [1] (x1 = 0.3636); -0.0575 ± 0.0016 kJ/mol in data set [1] (x1 = 0.4546); -0.0601 ± 0.0017 kJ/mol in data set [1] (x1 = 0.5454). Moreover, the excess molar enthalpy is -0.0599 ± 0.0017 kJ/mol in data set [1] (x1 = 0.6365), -0.053 ± 0.0015 kJ/mol in data set [1] (x1 = 0.7273), -0.0412 ± 0.0013 kJ/mol in data set [1] (x1 = 0.8182) and -0.0251 ± 0.001 kJ/mol in data set [1] (x1 = 0.9092).
As for `CC(C)(C)Cl` [2-chloro-2-methylpropane] + CC(C)OC(C)C, the excess molar enthalpy turned out to be 0.0045 ± 0.0008 kJ/mol in data set [1] (x1 = 0.1093); 0.007 ± 0.0008 kJ/mol in data set [1] (x1 = 0.2192); 0.008 ± 0.0008 kJ/mol in data set [1] (x1 = 0.3295); 0.0082 ± 0.0008 kJ/mol in data set [1] (x1 = 0.4402); 0.0071 ± 0.0008 kJ/mol in data set [1] (x1 = 0.5512); 0.0053 ± 0.0008 kJ/mol in data set [1] (x1 = 0.6628). Further, the excess molar enthalpy in data set [1] (x1 = 0.7747) was 0.0035 ± 0.0008 kJ/mol; in data set [1] (x1 = 0.8872) it was 0.0013 ± 0.0008 kJ/mol.
On to `CC(C)OC(C)C` [diisopropyl ether], for which the “vapor or sublimation pressure” value was 12.65 ± 0.034 kPa in data set [2] (288.15 K), 20 ± 0.047 kPa in data set [2] (298.15 K) and 30.46 ± 0.066 kPa in data set [2] (308.15 K).
As to `CCC(C)Cl` (stereo not drawn) [2-chlorobutane], the entries for the “vapor or sublimation pressure” value in data set [2] (288.15 K), in data set [2] (298.15 K) and in data set [2] (308.15 K) were 13.36 ± 0.035 kPa, 20.91 ± 0.049 kPa and 31.55 ± 0.068 kPa, respectively.
In the case of `CC(C)(C)Cl` [2-chloro-2-methylpropane], the “vapor or sublimation pressure” value in data set [2] (288.15 K) is 26.42 ± 0.062 kPa; in data set [2] (298.15 K), 40.13 ± 0.087 kPa; in data set [2] (308.15 K), 59.52 ± 0.12 kPa.
Taken in the same sequence, the figures for `CCCCCl` [1-chlorobutane] were 8.4 ± 0.025 kPa, 13.52 ± 0.034 kPa and 21.04 ± 0.048 kPa.
